Results published in PubChem BioAssay (NCI).
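Results reflect a 48-hour exposure of cells in 96-well plates to compound at five concentrations. Definition used: TGI = concentration required for complete inhibition of growth.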

What was measured:
Test in all cases: NCI-60 cell line screen, 48 h
786-0 renal = test system: 786-0 renal
A498 renal = test system: A498 renal
A549 NSCLC = test system: A549 NSCLC
ACHN renal = test system: ACHN renal
BT-549 breast = test system: BT-549 breast
CAKI-1 renal = test system: CAKI-1 renal
CCRF-CEM leukemia = test system: CCRF-CEM leukemia
COLO 205 colon = test system: COLO 205 colon
DU-145 prostate = test system: DU-145 prostate
EKVX NSCLC = test system: EKVX NSCLC
HCC-2998 colon = test system: HCC-2998 colon
HCT-116 colon = test system: HCT-116 colon
HCT-15 colon = test system: HCT-15 colon
HL-60(TB) leukemia = test system: HL-60(TB) leukemia
HOP-62 NSCLC = test system: HOP-62 NSCLC
HS 578T breast = test system: HS 578T breast
HT29 colon = test system: HT29 colon
IGROV1 ovarian = test system: IGROV1 ovarian
K-562 leukemia = test system: K-562 leukemia
KM12 colon = test system: KM12 colon
LOX IMVI melanoma = test system: LOX IMVI melanoma
M14 melanoma = test system: M14 melanoma
MALME-3M melanoma = test system: MALME-3M melanoma
MCF7 breast = test system: MCF7 breast
MDA-MB-435 = test system: MDA-MB-435
MDA-N = test system: MDA-N
MOLT-4 leukemia = test system: MOLT-4 leukemia
NCI-H23 lung = test system: NCI-H23 lung
NCI-H460 lung = test system: NCI-H460 lung
NCI-H522 lung = test system: NCI-H522 lung
NCI/ADR-RES ovarian = test system: NCI/ADR-RES ovarian
OVCAR-3 ovarian = test system: OVCAR-3 ovarian
OVCAR-4 ovarian = test system: OVCAR-4 ovarian
OVCAR-5 ovarian = test system: OVCAR-5 ovarian
OVCAR-8 ovarian = test system: OVCAR-8 ovarian
PC-3 prostate = test system: PC-3 prostate
RPMI-8226 leukemia = test system: RPMI-8226 leukemia
SF-268 CNS = test system: SF-268 CNS
SF-295 CNS = test system: SF-295 CNS
SF-539 CNS = test system: SF-539 CNS
SK-MEL-2 melanoma = test system: SK-MEL-2 melanoma
SK-MEL-28 melanoma = test system: SK-MEL-28 melanoma
SK-MEL-5 melanoma = test system: SK-MEL-5 melanoma
SK-OV-3 ovarian = test system: SK-OV-3 ovarian
SNB-19 CNS = test system: SNB-19 CNS
SR leukemia = test system: SR leukemia
SW-620 colon = test system: SW-620 colon
U251 CNS = test system: U251 CNS
UACC-257 melanoma = test system: UACC-257 melanoma
UACC-62 melanoma = test system: UACC-62 melanoma
UO-31 renal = test system: UO-31 renal
HOP-92 NSCLC = test system: HOP-92 NSCLC
MDA-MB-231 breast = test system: MDA-MB-231 breast
NCI-H226 lung = test system: NCI-H226 lung
RXF 393 renal = test system: RXF 393 renal
SN12C renal = test system: SN12C renal
SNB-75 CNS = test system: SNB-75 CNS
T-47D breast = test system: T-47D breast
TK-10 renal = test system: TK-10 renal

O=c1oc2ccc3ccccc3c2cc1-c1nc(-c2ccc([N+](=O)[O-])cc2)n[nH]1
TGI (786-0 renal): > 100 µM
TGI (A498 renal): > 100 µM
TGI (A549 NSCLC): > 100 µM
TGI (ACHN renal): > 100 µM
TGI (BT-549 breast): 79.8 µM
TGI (CAKI-1 renal): > 100 µM
TGI (CCRF-CEM leukemia): > 100 µM
TGI (COLO 205 colon): > 100 µM
TGI (DU-145 prostate): > 100 µM
TGI (EKVX NSCLC): > 100 µM
TGI (HCC-2998 colon): > 100 µM
TGI (HCT-116 colon): > 100 µM
TGI (HCT-15 colon): > 100 µM
TGI (HL-60(TB) leukemia): > 100 µM
TGI (HOP-62 NSCLC): 42 µM
TGI (HS 578T breast): 45.6 µM
TGI (HT29 colon): > 100 µM
TGI (IGROV1 ovarian): 51.8 µM
TGI (K-562 leukemia): > 100 µM
TGI (KM12 colon): > 100 µM
TGI (LOX IMVI melanoma): > 100 µM
TGI (M14 melanoma): > 100 µM
TGI (MALME-3M melanoma): > 100 µM
TGI (MCF7 breast): > 100 µM
TGI (MDA-MB-435): > 100 µM
TGI (MDA-N): > 100 µM
TGI (MOLT-4 leukemia): > 100 µM
TGI (NCI-H23 lung): 45.8 µM
TGI (NCI-H460 lung): > 100 µM
TGI (NCI-H522 lung): > 100 µM
TGI (NCI/ADR-RES ovarian): > 100 µM
TGI (OVCAR-3 ovarian): > 100 µM
TGI (OVCAR-4 ovarian): > 100 µM
TGI (OVCAR-5 ovarian): > 100 µM
TGI (OVCAR-8 ovarian): 94.6 µM
TGI (PC-3 prostate): > 100 µM
TGI (RPMI-8226 leukemia): > 100 µM
TGI (SF-268 CNS): 4.56 µM
TGI (SF-295 CNS): > 100 µM
TGI (SF-539 CNS): 39.4 µM
TGI (SK-MEL-2 melanoma): > 100 µM
TGI (SK-MEL-28 melanoma): > 100 µM
TGI (SK-MEL-5 melanoma): > 100 µM
TGI (SK-OV-3 ovarian): 52.7 µM
TGI (SNB-19 CNS): > 100 µM
TGI (SR leukemia): > 100 µM
TGI (SW-620 colon): > 100 µM
TGI (U251 CNS): > 100 µM
TGI (UACC-257 melanoma): > 100 µM
TGI (UACC-62 melanoma): > 100 µM
TGI (UO-31 renal): > 100 µM

CCC(=O)N(c1ccccc1)C(C)CN1CCC(O)(c2cccc(C(F)(F)F)c2)CC1 (stereo not drawn)
TGI (786-0 renal): 40.1 µM
TGI (A498 renal): 66.3 µM
TGI (A549 NSCLC): > 100 µM
TGI (ACHN renal): > 100 µM
TGI (CAKI-1 renal): > 100 µM
TGI (CCRF-CEM leukemia): 50.1 µM
TGI (COLO 205 colon): 28.5 µM
TGI (EKVX NSCLC): > 100 µM
TGI (HCC-2998 colon): 57.3 µM
TGI (HCT-116 colon): 31.1 µM
TGI (HCT-15 colon): 90.9 µM
TGI (HL-60(TB) leukemia): 39.3 µM
TGI (HOP-62 NSCLC): 42.3 µM
TGI (HOP-92 NSCLC): 61.6 µM
TGI (HS 578T breast): 99.7 µM
TGI (HT29 colon): 27.2 µM
TGI (IGROV1 ovarian): > 100 µM
TGI (K-562 leukemia): 75.4 µM
TGI (KM12 colon): > 100 µM
TGI (LOX IMVI melanoma): 35 µM
TGI (M14 melanoma): 33.4 µM
TGI (MDA-MB-231 breast): 44.7 µM
TGI (MDA-MB-435): 42 µM
TGI (MDA-N): 39.2 µM
TGI (MOLT-4 leukemia): 44.5 µM
TGI (NCI-H226 lung): 76.5 µM
TGI (NCI-H23 lung): 47.5 µM
TGI (NCI-H522 lung): 39 µM
TGI (NCI/ADR-RES ovarian): 53.4 µM
TGI (OVCAR-3 ovarian): > 100 µM
TGI (OVCAR-4 ovarian): > 100 µM
TGI (OVCAR-5 ovarian): 55.4 µM
TGI (OVCAR-8 ovarian): > 100 µM
TGI (PC-3 prostate): 46 µM
TGI (RPMI-8226 leukemia): 45.3 µM
TGI (RXF 393 renal): > 100 µM
TGI (SF-295 CNS): > 100 µM
TGI (SF-539 CNS): 49 µM
TGI (SK-MEL-2 melanoma): 43 µM
TGI (SK-MEL-28 melanoma): 61.2 µM
TGI (SK-MEL-5 melanoma): 34.9 µM
TGI (SK-OV-3 ovarian): > 100 µM
TGI (SN12C renal): > 100 µM
TGI (SNB-19 CNS): > 100 µM
TGI (SNB-75 CNS): 76.3 µM
TGI (SW-620 colon): > 100 µM
TGI (T-47D breast): 98.4 µM
TGI (TK-10 renal): 73.3 µM
TGI (U251 CNS): > 100 µM
TGI (UACC-257 melanoma): 34.3 µM
TGI (UACC-62 melanoma): 49.1 µM
TGI (UO-31 renal): 72.6 µM
